For 39 molecules, inhibition results are on record in PubChem BioAssay AID493105 (The Scripps Research Institute Molecular Screening Center, 2011).

Assay in all cases: LYPLA1 and LYPLA2 inhibitors, biochemical, gel-based ABPP, fluorescence, recombinant and endogenous enzyme (AID 493105)
One assay deals with rhLYPLA1. To be noted: fluorescent probe labeling, soluble fraction, at 20 µM, stronger effect = higher value.
For another assay, the system named is emLYPLA2. The note with it: fluorescent probe labeling, membrane fraction, at 20 µM, stronger effect = higher value.
The next assay has as its system rhLYPLA2. The note with it: fluorescent probe labeling, membrane fraction, at 20 µM, stronger effect = higher value.
The next assay concerns emLYPLA1. To be noted: fluorescent probe labeling, membrane fraction, at 20 µM, stronger effect = higher value.

The source made the active and inactive calls. No rule for the calls is given here.

With `COc1ccc(-n2nc(C(=O)NCC(=O)N3CCN(c4cccc(Cl)c4)CC3)c3ccccc3c2=O)c(OC)c1`, the inhibition was 0% (inactive) in the assay on rhLYPLA1, 83% with emLYPLA2, 61% in the assay on rhLYPLA2 and 16% (inactive) in the assay on emLYPLA1.

Take `CCC(=O)N1CCN(c2ccc(NC(=S)NC(=O)c3cccc([N+](=O)[O-])c3)cc2)CC1`: the inhibition was 0% (inactive) with rhLYPLA1, 6% (inactive) in the assay on emLYPLA2, 5% (inactive) with rhLYPLA2 and 8% (inactive) in the assay with emLYPLA1.

On to `Cc1cc(OCc2cc(C(=O)N3CCC(Oc4cccnc4)CC3)no2)cc(C)c1Cl`, for which the inhibition in the assay on rhLYPLA1 was 0% (inactive); in the assay on emLYPLA2, 5% (inactive); with rhLYPLA2 it was 3% (inactive).

For the molecule `CSc1ccccc1OCc1cc(C(=O)N2CCC(Oc3cccnc3)CC2)no1`, the inhibition with rhLYPLA1 was 0% (inactive); in the assay with emLYPLA2, 16% (inactive); with rhLYPLA2, 6% (inactive).

For `CCOc1cc(CN2CCCC(C(=O)c3cccc(C(F)(F)F)c3)C2)ccc1O` (stereo unspecified), the inhibition with rhLYPLA1 is 2% (inactive); with emLYPLA2, 0% (inactive); in the assay on rhLYPLA2 it was 0% (inactive); in the assay with emLYPLA1 it was 0% (inactive).

`COc1ccc(/C=C2/Sc3ccc(C(=O)NCCCN4CCOCC4)cc3NC2=O)cc1OC`: the inhibition in the assay on rhLYPLA1 is 0% (inactive); in the assay on emLYPLA2 it was 0% (inactive); in the assay on rhLYPLA2 it was 1% (inactive); with emLYPLA1, 5% (inactive).

Take `O=C(c1ccc(-c2ccccc2)c(F)c1)C1CCCN(C(=O)c2cncs2)C1` (stereo unspecified): the results for the inhibition with rhLYPLA1, in the assay with emLYPLA2 and in the assay on rhLYPLA2 were 0% (inactive), 12% (inactive) and 6% (inactive), respectively.

On to `Cc1ccc(N2CCN(C3=NC(=O)/C(=C\c4cccs4)S3)CC2)cc1`, for which the inhibition in the assay with rhLYPLA1 was 0% (inactive); in the assay on emLYPLA2, 0% (inactive); in the assay on rhLYPLA2, 5% (inactive).

For `Cc1c(Br)c([N+](=O)[O-])nn1CC(=O)Nc1ccc(Cc2ccncc2)cc1`, the inhibition in the assay with rhLYPLA1 is 0% (inactive); in the assay with emLYPLA2, 8% (inactive); in the assay on rhLYPLA2 it was 0% (inactive); with emLYPLA1 it was 8% (inactive).

`CC1CCc2c(sc(NC(=O)CN3CCN(C(=O)c4ccco4)CC3)c2C#N)C1` (stereo unspecified): the inhibition in the assay on rhLYPLA1 was 16% (inactive); with emLYPLA2, 0% (inactive); with rhLYPLA2, 0% (inactive); in the assay on emLYPLA1 it was 3% (inactive).

`Cc1ccc(OCC(=O)N2CCN(C(=O)CCC3CCCC3)CC2)cc1`: the inhibition in the assay with rhLYPLA1 was 43%; with emLYPLA2, 14% (inactive); in the assay on rhLYPLA2 it was 3% (inactive); in the assay on emLYPLA1, 14% (inactive).

Consider `Cc1ccc(OCC(=O)N2CCN(c3ccc([N+](=O)[O-])c(N4CCOCC4)c3)CC2)cc1`, for which the inhibition in the assay on rhLYPLA1 was 10% (inactive); in the assay with emLYPLA2 it was 0% (inactive); in the assay on rhLYPLA2, 0% (inactive); in the assay with emLYPLA1, 0% (inactive).

For `COc1ccc(-n2c(C)c([N+](=O)[O-])c3ccc(O)c(CN4CCCCC4)c32)cc1`, the inhibition is 21% (inactive) in the assay with rhLYPLA1, 0% (inactive) in the assay with emLYPLA2, 0% (inactive) in the assay with rhLYPLA2 and 0% (inactive) in the assay with emLYPLA1.

As to `N#Cc1c(N)nc(SCc2ccncc2)c(C#N)c1-c1cccs1`, the inhibition with rhLYPLA1 is 3% (inactive); with emLYPLA2 it was 16% (inactive); with rhLYPLA2, 11% (inactive); in the assay on emLYPLA1, 10% (inactive).

With `CCN(CC)S(=O)(=O)c1cccc(-c2nnc(SCCOc3ccccc3)o2)c1`, the inhibition in the assay with rhLYPLA1 was 8% (inactive); in the assay on emLYPLA2 it was 17% (inactive); in the assay with rhLYPLA2 it was 19% (inactive); in the assay with emLYPLA1, 0% (inactive).

Turning to `O=C(CN1CCN(C(=O)c2ccco2)CC1)Nc1cc(C(F)(F)F)ccc1Cl`, the inhibition with rhLYPLA1 was 78%; in the assay on emLYPLA2, 13% (inactive); in the assay on rhLYPLA2, 0% (inactive); with emLYPLA1, 60%.

In the case of `Clc1cccc(N2CCN(CCNc3nc4ccccc4n4cnnc34)CC2)c1`, the inhibition in the assay with rhLYPLA1 was 0% (inactive); in the assay on emLYPLA2, 0% (inactive); in the assay on rhLYPLA2, 0% (inactive); in the assay with emLYPLA1, 1% (inactive).

On to `O=C(NC(=S)Nc1sc2c(c1C(=O)O)CCCC2)c1ccccc1`, for which the inhibition in the assay on rhLYPLA1 was 2% (inactive); with emLYPLA2, 52%; with rhLYPLA2, 34%.

Take `COc1cc(/C=N/N2CCN(Cc3ccc(Cl)cc3)CC2)cc(Br)c1O`: the inhibition was 31% in the assay with rhLYPLA1, 0% (inactive) in the assay with emLYPLA2, 0% (inactive) in the assay with rhLYPLA2 and 0% (inactive) with emLYPLA1.

Regarding `CC(NC(=O)c1ccco1)C(=O)N1CCN(c2cccc(C(F)(F)F)c2)CC1` (stereo unspecified), the inhibition is 20% (inactive) with rhLYPLA1, 12% (inactive) in the assay with emLYPLA2, 5% (inactive) in the assay with rhLYPLA2 and 0% (inactive) with emLYPLA1.

Consider `CC1CC(C)CN(S(=O)(=O)c2ccc3c(c2)CC(C)N3C(=O)C2CCC2)C1` (stereo unspecified), for which the inhibition with rhLYPLA1 was 9% (inactive); in the assay on emLYPLA2 it was 0% (inactive); with rhLYPLA2, 0% (inactive); with emLYPLA1, 0% (inactive).

In the case of `O=C(CCCCn1c(=O)[nH]c2ccccc2c1=O)N1CCN(c2cccc(C(F)(F)F)c2)CC1`, the inhibition in the assay on rhLYPLA1, in the assay on emLYPLA2, with rhLYPLA2 and with emLYPLA1 was 0% (inactive) each time.

For `COc1ccc(-n2nc(C(=O)NCC(=O)N3CCN(Cc4ccccc4)CC3)c3ccccc3c2=O)cc1`, the inhibition was 17% (inactive) with rhLYPLA1, 43% in the assay on emLYPLA2 and 17% (inactive) with rhLYPLA2.

For the molecule `COc1ccc(N2CCN(C(=O)CCCCCn3c(=O)[nH]c4ccsc4c3=O)CC2)cc1`, the inhibition with rhLYPLA1 is 0% (inactive); in the assay on emLYPLA2, 6% (inactive); in the assay on rhLYPLA2, 6% (inactive).

Regarding `O=[N+]([O-])c1ccc(N2CCC(=NOCc3ccc(Cl)cc3)CC2)cc1`, the inhibition with rhLYPLA1 is 22% (inactive); in the assay on emLYPLA2, 13% (inactive); with rhLYPLA2, 0% (inactive); with emLYPLA1, 12% (inactive).

Regarding `COc1ccc(N2CCN(C(=O)C3CCC(Cn4c(=S)[nH]c5ccccc5c4=O)CC3)CC2)cc1` (stereo unspecified), the inhibition in the assay on rhLYPLA1 is 0% (inactive); with emLYPLA2, 67%; with rhLYPLA2, 45%; in the assay with emLYPLA1, 2% (inactive).

For the molecule `O=C(c1cc(COc2cccc(C(F)(F)F)c2)on1)N1CCC(Oc2cccnc2)CC1`, the inhibition with rhLYPLA1, with emLYPLA2 and in the assay on rhLYPLA2 was 0% (inactive) each time.

On to `O=C(c1ccc(S(=O)(=O)N2CCCCC2)cc1)N1CCN(CCN2C(=O)c3cccc4cccc(c34)C2=O)CC1`, for which the inhibition was 11% (inactive) with rhLYPLA1, 27% (inactive) in the assay with emLYPLA2 and 20% (inactive) with rhLYPLA2.

On to `CCOc1ccc(NC(=S)NC(=O)c2c(Br)cnn2C)c([N+](=O)[O-])c1`, for which the results for the inhibition in the assay with rhLYPLA1, with emLYPLA2 and in the assay with rhLYPLA2 were 17% (inactive), 16% (inactive) and 5% (inactive), respectively.

With `COc1cc([C@H]2Oc3cc([C@H]4Oc5cc(O)cc(O)c5C(=O)[C@@H]4O)ccc3O[C@@H]2CO)ccc1O`, the inhibition with rhLYPLA1 is 13% (inactive); with emLYPLA2, 42%; with rhLYPLA2 it was 28% (inactive).

In the case of `O=C(/C=C/c1ccccc1)N1CCN(CCN2C(=O)c3cccc4cccc(c34)C2=O)CC1`, the inhibition is 15% (inactive) in the assay with rhLYPLA1, 34% in the assay with emLYPLA2 and 18% (inactive) in the assay on rhLYPLA2.

For the molecule `Nc1nc(NCc2ccco2)nc(N2CCN(Cc3ccccc3)CC2)c1[N+](=O)[O-]`, the inhibition with rhLYPLA1 is 2% (inactive); in the assay with emLYPLA2 it was 1% (inactive); in the assay on rhLYPLA2, 5% (inactive).

For the molecule `COc1ccccc1-c1csc(-n2ncc(C#N)c2N)n1`, the results for the inhibition with rhLYPLA1, with emLYPLA2 and in the assay on rhLYPLA2 were 0% (inactive), 6% (inactive) and 4% (inactive), respectively.

In the case of `O=C(/C=C/c1ccc(Br)cc1)N1CCN(c2cccc(C(F)(F)F)c2)CC1`, the inhibition is 16% (inactive) with rhLYPLA1, 16% (inactive) with emLYPLA2 and 15% (inactive) in the assay with rhLYPLA2.

Consider `O=C(COc1ccc(Cl)cc1)N1CCN(c2ccc([N+](=O)[O-])c(N3CCCCC3)c2)CC1`, for which the figures for the inhibition in the assay with rhLYPLA1, in the assay on emLYPLA2 and in the assay with rhLYPLA2 were 36%, 10% (inactive) and 5% (inactive), respectively.

As to `O=c1[nH]c(CN2CCN(C/C=C/c3ccccc3)CC2)nc2cc(Cl)ccc12`, the figures for the inhibition with rhLYPLA1, in the assay with emLYPLA2 and in the assay on rhLYPLA2 were 3% (inactive), 2% (inactive) and 0% (inactive), respectively.

In the case of `COc1ccc(S(=O)(=O)Nc2ccc(Cc3ccncc3)cc2)cc1C`, the inhibition is 12% (inactive) in the assay with rhLYPLA1, 0% (inactive) in the assay with emLYPLA2 and 0% (inactive) with rhLYPLA2.

For the molecule `O=C(COc1ccc(Cl)cc1)N1CCN(C/C=C/c2ccccc2)CC1`, the inhibition in the assay on rhLYPLA1 was 0% (inactive); with emLYPLA2, 25% (inactive); with rhLYPLA2, 12% (inactive).

Consider `COc1ccc(C(=O)NC(=S)Nc2ccc(N3CCOCC3)c(Cl)c2)cc1[N+](=O)[O-]`, for which the inhibition is 7% (inactive) in the assay with rhLYPLA1, 1% (inactive) in the assay on emLYPLA2 and 5% (inactive) in the assay on rhLYPLA2.

For orientation: inhibition means the percentage by which the read-out fell short of the control.
